Experimental findings from ChEMBL document CHEMBL2380271, “Synthesis and biological evaluation of a class of quinolone triazoles as potential antimicrobial agents and their interactions with calf thymus DNA” (2013) are described below.

SMILES strings stand for the structures. Values after ≈ are worked out from the molar mass of the structure shown.

The MIC is the lowest concentration found to suppress growth. A high value points to a less susceptible organism.

Assay [1] concerns Pseudomonas aeruginosa. In words: Antibacterial activity against Pseudomonas aeruginosa by NCCLS method. It counts as functional.
The test system of assay [2] is Cyberlindnera jadinii. The assay is described as follows: Antifungal activity against Candida utilis by NCCLS method. It counts as functional. The settings on record: Williopsis jadinii.
Assay [3] concerns Micrococcus luteus. In words: Antibacterial activity against Micrococcus luteus ATCC 4698 by NCCLS method. It counts as functional.
Assay [4] relates to Escherichia coli. The assay is described as follows: Antibacterial activity against Escherichia coli DH52 by NCCLS method. It counts as functional.
Assay [5] relates to Saccharomyces cerevisiae. The assay is described as follows: Antifungal activity against Saccharomyces cerevisiae by NCCLS method. It counts as functional.
The subject of assay [6] is Salmonella typhi. The assay is described as follows: Antibacterial activity against Eberthella typhosa by NCCLS method. It counts as functional, Salmonella enterica subsp. enterica serovar Typhi. The settings on record: Salmonella enterica.
In assay [7] the test system is Candida albicans. The assay is described as follows: Antifungal activity against Candida albicans by NCCLS method. It counts as functional.
Assay [8] deals with Shigella dysenteriae. The assay is described as follows: Antibacterial activity against Shigella dysenteriae by NCCLS method. The class given is functional.
Assay [9] concerns Staphylococcus aureus. The assay is described as follows: Antibacterial activity against Staphylococcus aureus ATCC 25923 by NCCLS method. The class given is functional.
In assay [10] the test system is Staphylococcus aureus. The assay is described as follows: Antibacterial activity against methicillin-resistant Staphylococcus aureus N315 by NCCLS method. The class given is functional.
In assay [11] the test system is Aspergillus flavus. The assay is described as follows: Antifungal activity against Aspergillus flavus by NCCLS method. It counts as functional.
Assay [12] concerns Staphylococcus aureus. The assay is described as follows: Ratio of norfloxacin MIC to compound MIC for methicillin-resistant Staphylococcus aureus N315. The class given is functional.
Assay [13] deals with Staphylococcus aureus. In words: Ratio of chloromycin MIC to compound MIC for methicillin-resistant Staphylococcus aureus N315. It counts as functional.
Assay [14] relates to Aspergillus flavus. The assay is described as follows: Ratio of Fluconazole MIC to compound MIC for Aspergillus flavus. The class given is functional.

In the case of `O=C(O)c1cn(CC(O)Cn2cncn2)c2c(F)cc(F)cc2c1=O` (configuration not stated), the MIC was 2 µg/mL (≈ 5.71 µM) in assay [1]; above 512 µg/mL in assay [2]; 2 µg/mL (≈ 5.71 µM) in [3]; 2 µg/mL (≈ 5.71 µM) in [4]; 512 µg/mL (≈ 1460 µM) in assay [5]; 1 µg/mL (≈ 2.85 µM) in assay [6]. Further, the MIC stood at 8 µg/mL (≈ 22.8 µM) in [7]; 16 µg/mL (≈ 45.7 µM) in assay [8]; 2 µg/mL (≈ 5.71 µM) in assay [9]; 8 µg/mL (≈ 22.8 µM) in assay [10]; 256 µg/mL (≈ 731 µM) in assay [11].

Take `O=C(O)c1cn(CC(O)Cn2cncn2)c2ccc(F)cc2c1=O` (configuration not stated): the MIC in assay [1] was 8 µg/mL (≈ 24.1 µM); in assay [2], above 512 µg/mL; in assay [3], 32 µg/mL (≈ 96.3 µM); in assay [4], 32 µg/mL (≈ 96.3 µM); in assay [5], 512 µg/mL (≈ 1540 µM); in assay [6], 1 µg/mL (≈ 3.01 µM). For the same molecule, the MIC came to 64 µg/mL (≈ 193 µM) in assay [7]; 0.5 µg/mL (≈ 1.5 µM) in assay [8]; 128 µg/mL (≈ 385 µM) in assay [9]; 1 µg/mL (≈ 3.01 µM) in assay [10]; 512 µg/mL (≈ 1540 µM) in assay [11]. Further, the Ratio in assay [12] is listed as 8; in [13], 16.

With `O=C(O)c1cn(CC(O)Cn2cncn2)c2cc(Cl)c(F)cc2c1=O` (configuration not stated), the MIC in [1] was 2 µg/mL (≈ 5.45 µM); in assay [2] it was above 512 µg/mL; in assay [3] it was 16 µg/mL (≈ 43.6 µM); in [4] it was 8 µg/mL (≈ 21.8 µM); in assay [5] it was 256 µg/mL (≈ 698 µM); in [6] it was 4 µg/mL (≈ 10.9 µM). The MIC in [7] is 16 µg/mL (≈ 43.6 µM); in assay [8], 64 µg/mL (≈ 175 µM); in assay [9], 64 µg/mL (≈ 175 µM); in [10], 64 µg/mL (≈ 175 µM); in assay [11], 128 µg/mL (≈ 349 µM).

As to `O=C(O)c1cn(CC(O)Cn2cncn2)c2c(Cl)cc(Cl)cc2c1=O` (configuration not stated), the MIC is 8 µg/mL (≈ 20.9 µM) in [1]; above 512 µg/mL in assay [2]; 64 µg/mL (≈ 167 µM) in assay [3]; 64 µg/mL (≈ 167 µM) in [4]; 128 µg/mL (≈ 334 µM) in assay [5]; 16 µg/mL (≈ 41.8 µM) in assay [6]. Further, the MIC was found to be 32 µg/mL (≈ 83.5 µM) in assay [7]; 4 µg/mL (≈ 10.4 µM) in [8]; 64 µg/mL (≈ 167 µM) in assay [9]; 4 µg/mL (≈ 10.4 µM) in assay [10]; 256 µg/mL (≈ 668 µM) in assay [11].

With `O=C(O)c1cn(CC(O)Cn2cncn2)c2c(F)cccc2c1=O` (configuration not stated), the MIC in assay [1] was 8 µg/mL (≈ 24.1 µM); in assay [2], above 512 µg/mL; in assay [3], 8 µg/mL (≈ 24.1 µM); in [4] it was 4 µg/mL (≈ 12 µM); in [5], 256 µg/mL (≈ 770 µM); in [6], 64 µg/mL (≈ 193 µM). Besides, the MIC was 16 µg/mL (≈ 48.2 µM) in [7]; 1 µg/mL (≈ 3.01 µM) in [8]; 32 µg/mL (≈ 96.3 µM) in [9]; 64 µg/mL (≈ 193 µM) in assay [10]; 128 µg/mL (≈ 385 µM) in [11].

Turning to `CCOC(=O)c1cn(CC(O)Cn2cncn2)c2cc(C(F)(F)F)ccc2c1=O` (racemic), the MIC amounted to 1 µg/mL (≈ 2.44 µM) in assay [1]; 128 µg/mL (≈ 312 µM) in assay [2]; 2 µg/mL (≈ 4.87 µM) in assay [3]; 32 µg/mL (≈ 78 µM) in assay [4]; 64 µg/mL (≈ 156 µM) in assay [5]; 0.5 µg/mL (≈ 1.22 µM) in [6]. Moreover, the MIC was determined as 64 µg/mL (≈ 156 µM) in [7]; 32 µg/mL (≈ 78 µM) in [8]; 16 µg/mL (≈ 39 µM) in assay [9]; 32 µg/mL (≈ 78 µM) in assay [10]; 8 µg/mL (≈ 19.5 µM) in [11].

As to `CCOC(=O)c1cn(CC(O)Cn2cncn2)c2cc(Cl)c(F)cc2c1=O` (racemic), the minimum inhibitory concentration (MIC) in [1] was 4 µg/mL (≈ 10.1 µM); in [2], above 512 µg/mL; in assay [3] it was 4 µg/mL (≈ 10.1 µM); in assay [4], 32 µg/mL (≈ 81.1 µM); in assay [5], 512 µg/mL (≈ 1300 µM); in assay [6], 1 µg/mL (≈ 2.53 µM). Moreover, the MIC was 8 µg/mL (≈ 20.3 µM) in assay [7]; 32 µg/mL (≈ 81.1 µM) in [8]; 64 µg/mL (≈ 162 µM) in [9]; 4 µg/mL (≈ 10.1 µM) in assay [10]; 16 µg/mL (≈ 40.5 µM) in assay [11].

In the case of `CCOC(=O)c1cn(CC(O)Cn2cncn2)c2c(F)cccc2c1=O` (racemic), the MIC in [1] is 32 µg/mL (≈ 88.8 µM); in assay [2], above 512 µg/mL; in [3] it was 2 µg/mL (≈ 5.55 µM); in assay [4], 8 µg/mL (≈ 22.2 µM); in assay [5], 32 µg/mL (≈ 88.8 µM); in assay [6], 0.5 µg/mL (≈ 1.39 µM). The MIC in [7] worked out at 32 µg/mL (≈ 88.8 µM); in assay [8] it was 8 µg/mL (≈ 22.2 µM); in [9] it was 64 µg/mL (≈ 178 µM); in [10] it was 128 µg/mL (≈ 355 µM); in assay [11] it was 512 µg/mL (≈ 1420 µM).

Turning to `CCOC(=O)c1cn(CC2CO2)c2c(F)cc(F)cc2c1=O` (racemic), the MIC in assay [1] is 64 µg/mL (≈ 207 µM); in [2], above 512 µg/mL; in assay [3], 2 µg/mL (≈ 6.47 µM); in assay [4], 128 µg/mL (≈ 414 µM); in assay [5] it was 64 µg/mL (≈ 207 µM); in [6], 2 µg/mL (≈ 6.47 µM). Further, the MIC was 4 µg/mL (≈ 12.9 µM) in assay [7]; above 512 µg/mL in assay [8]; 16 µg/mL (≈ 51.7 µM) in assay [9]; 8 µg/mL (≈ 25.9 µM) in assay [10]; 1 µg/mL (≈ 3.23 µM) in assay [11]. In addition, the Ratio in assay [14] was 256.
